In paper PMC7600788, “Sequence Permutation Generates Peptides with Different Antimicrobial and Antibiofilm Activities” (Pharmaceuticals, 2020):
No end group written: not given here.

Experiments:
[1] = system: S. aureus USA300 LAC; format: cell-based, Staphylococcus aureus; conditions: USA300
Method: (§1) To gain additional insight, we also compared the effects of physiological saline and human serum on the antibacterial activities of WW291-WW298 using both E. coli and S. aureus (Table 3). In our assays, salts and serum were present during the entire course of the experiment. […] Thus, WW295 and WW298 stand out in terms of activity robustness (bold in Table 3).
(§2) The antibacterial activity of peptides was evaluated using a standard broth microdilution protocol with minor modifications as previously described. In brief, logarithmic phase bacterial cultures (i.e., optical density at 600 nm ≈ 0.5) were diluted to OD600~0.001 and partitioned into a 96-well polystyrene microplate at 90 μL per well. After treatment with 10 μL of peptide solutions two-fold diluted to various concentrations, microplates were incubated at 37 °C overnight and read on a ChroMate 4300 Microplate Reader at 630 nm (GMI, Ramsey, MN). […] Minimal bactericidal concentration (MBC) was determined by plating the clear wells at MIC or above. The peptide concentration that caused no bacterial growth on the petri dish is MBC.

[2] = system: PMA differentiated THP-1 cells; experiment: MTS cytotoxicity assay; format: cell-based; conditions: PMA differentiated THP-1, serum free media, one hour treatment
Method: (§3) Peptides were assayed for potential in vitro toxicity against human keratinocytes (HaCaT) and THP-1 cells as previously described. THP-1 monocytes were differentiated into macrophages by adding 30 ng/mL of phorbol 12-myristate 13-acetate (PMA; Sigma-Aldrich) to RPMI 1640 supplemented with 10% fetal calf serum culture (FCS) medium for 16 h. Briefly, cells were seeded at a density of 3 × 10^4 per well in a tissue culture 96-well plate in DMEM/RPMI supplemented with 10% fetal bovine serum (FBS), and incubated at 37 °C in a 5% CO2 atmosphere for 24 h. African green monkey kidney Vero E6 cells were cultivated in EMEM in the same manner. Before antimicrobial treatment, wells were replaced with serum free media and treated with peptides at different concentrations for one hour. After incubation, the cells were washed and incubated with 100 μL of DMEM media containing 20 μL of 3-(4,5-dimethylthiazol-2-yl)-5-(3-carboxymethoxyphenyl)-2-(4-sulfophenyl)-2H-tetrazolium (MTS) reagent for two hours at 37 °C. The treatment time was one hour in the case of Vero E6 cells. Absorbance readings at 492 nm were taken using a ChroMate microplate reader (GMI, Ramsey, MN, USA).

[3] = system: human keratinocytes (HaCaT); experiment: MTS cytotoxicity assay; format: cell-based; conditions: serum free media, one hour treatment
Method: as §3

[4] = system: B. subtilis 167; format: cell-based, Bacillus subtilis; conditions: 167
Method: (§4) The antimicrobial activity spectrum of the WW peptide series was performed on a panel of Gram-positive and -negative bacteria using the standard broth micro-dilution method with minor modifications as described. […] There was a small change in the case of Pseudomonas aeruginosa and Acinetobacter baumannii up to two-fold. Four-fold changes were found for Staphylococcus aureus, Staphylococcus epidermidis, Escherichia coli, and Bacillus subtilis. However, we observed over eight-fold MIC changes for Klebsiella pneumoniae and vancomycin-resistant enterococcus (VRE). […] We also observed more than eight-fold changes in minimal bacterial killing concentrations.
as §2

[5] = system: E. coli K12; format: cell-based, Escherichia coli; conditions: K12
Method: as §4, §2

[6] = system: P. aeruginosa PAO1; format: cell-based, Pseudomonas aeruginosa; conditions: PAO1
Method: as §4, §2

[7] = system: S. aureus USA300; format: cell-based, Staphylococcus aureus; conditions: USA300
Method: as §2

[8] = system: E. coli ATCC 25922; format: cell-based, Escherichia coli; conditions: ATCC 25922
Method: as §1, §2

[9] = system: S. aureus Mu50; format: cell-based, Staphylococcus aureus; conditions: Mu50
Method: as §4, §2

[10] = system: E. faecium VRE; format: cell-based; conditions: VRE
Method: as §4, §2

[11] = system: A. baumannii B28-16; format: cell-based, Acinetobacter baumannii; conditions: B28-16
Method: as §4, §2

[12] = system: chicken red blood cells; experiment: Hemolytic assay; format: cell-based
Method: (§5) Hemolytic assays of peptides were performed as previously described. Briefly, human red blood cells (hRBCs) obtained from UNMC Blood Bank, or chicken or porcine blood cells purchased from commercial sources as previously described, were washed three times with phosphate buffer saline (PBS) and diluted to a 2% solution (V/v). After peptide treatment, incubation at 37 °C for one hour, and centrifugation at 13,000 rpm, aliquots of the supernatant were carefully transferred to a fresh 96-well microplate. The amount of hemoglobin released was measured at 545 nm. The percent lysis was calculated by assuming 100% release when human blood cells were treated with 2% Triton X-100, and 0% release when incubated with PBS buffer. The peptide concentration that caused 50% lysis of hRBCs is defined as HC50.

[13] = system: Pig RBC; experiment: Hemolytic assay; format: cell-based
Method: as §5

[14] = system: human red blood cells; experiment: Hemolytic assay; format: cell-based; conditions: red cells of human
Method: as §5

[15] = system: monkey kidney Vero E6 cells; format: cell-based
Method: as §3, with “The treatment time was one hour in the case of Vero E6 cells.” left out

Row | Sequence | MIC, +150 mM NaCl [1] [µM] | MIC, TSB [1] [µM] | THP-1, concentration that caused 50% cell death (LC50) [2] [µM] | HaCaT, concentration that caused 50% cell death (LC50) [3] [µM] | Minimal Inhibitory Concentration (MIC), BS [4] [µM] | Minimal Inhibitory Concentration (MIC), EC [5] [µM] | Minimal Inhibitory Concentration (MIC), PA [6] [µM] | MBC, USA300 [7] [µM] | MIC, +150 mM NaCl [8] [µM] | MIC, +10% Human Serum [8] [µM] | MIC, TSB [8] [µM] | Minimal Inhibitory Concentration (MIC), SA [9] [µM] | Minimal Inhibitory Concentration (MIC), VRE [10] [µM] | Minimal Inhibitory Concentration (MIC), AB [11] [µM] | Chicken RBC, concentration that caused 50% red blood cell lysis (HC50) [12] [µM] | Pig RBC, concentration that caused 50% red blood cell lysis (HC50) [13] [µM] | Human RBC, concentration that caused 50% red blood cell lysis (HC50) [14] [µM] | Vero Cells, concentration that caused 50% cell death (LC50) [15] [µM] | MIC, +10% Human Serum [1] [µM]
1 | KIWWWWLR [WW296] | 1.6 | 1.6 | 35 | 100 | 12.5 | 6.2 to 12.5 | 50 | 6.2 | 25 | >25 | 3.1 to 6.2 | 3.1 | 25 | 12.5 | 50 | >100 | 103 | >100 | 
2 | WWWWLRKI [WW298] | 1.6 | 1.6 | 30 | 80 | 6.25 to 12.5 | 12.5 | 50 | 3.1 | 12.5 | >25 | 12.5 | 3.1 | 12.5 | 6.25 to 12.5 | 70 | 37 | 52 | 100 | 12.5 to 25
